Our source for the IC50 values is patent US6703421B1, “Methods of using phenylmethylbenzoquinone and hydroquinone compounds for treatment of myocarditis, dilated cardiomyopathy and heart failure” (Daiichi Suntory Pharma Co., Ltd., priority 1999, dated 2004).

Where two headings read alike, the source gives them in different places.

The subject of this assay is NF-κB. Kind of assay: NF-κB luciferase reporter assay in A549/NF-κBLuc cells. Conditions: A549/NF-κBLuc, luciferase activity. The assay is classed as cell-based, human. The protocol:
Using lipofectamine (Lifetech Oriental K. K., Tokyo) according to the conventional method, human lung cancer cell line A549 cells (ATCC catalog no. CCL185), which are known to express hiNOS by cytokine stimulation, were co-transfected with pNFκB-Luc, which are plasmid controlled by a NF-κB binding consensus sequence, and pSV2neo (Clontech, U.S.A.), and then A549/NF-κBLuc, the cell that has stably introduced pNFκB-Luc, was selected by adding G418 sulfate (1 mg/ml, Lifetech Oriental K. K.) to the culture medium.
The luciferase activity was measured using the Luciferase Assay System (Promega, U.S.A.).

Where [1] appears, read: Homo sapiens, IL-1β (1 ng/ml) for 4 hours, read-out: IC50 (μM) IL-1 stimulation.

Turning to “2-[5-Methylthieno[2,3-d]pyrimidine-4-yl]aminoindan-5-carboxylic Acid Morpholinamide [Prod. Ex. 221]”, the half-maximal inhibitory concentration (IC50) runs as follows: (IL-1β (1 ng/ml) for 4 hours, read-out: IC50 (μM) IL-1 stimulation) 0.051 µM; (TNF-α (500 ng/ml) for 4 hours, read-out: IC50 (μM) TNF stimulation) 0.089 µM.
Turning to `COC1=C(OC)C(=O)C(Cc2ccc(CCC(=O)N3CCOCC3)cc2)=C(C)C1=O` [Prod. Ex. 3, N-[3-[4-(5,6-Dimethoxy-3-methyl-1,4-benzoquinon-2-ylmethyl)phenyl]propionyl]morpholine], the IC50 under setting [1] amounted to 29 µM.
As for `COC1=C(OC)C(=O)C(Cc2ccc(CCC(=O)NC(C)C)cc2)=C(C)C1=O` [Prod. Ex. 9, N-[3-[4-(5,6-Dimethoxy-3-methyl-1,4-benzoquinon-2-ylmethyl)phenyl]propionyl]isopropylamine], the IC50 is, setting by setting: under setting [1], 3 µM; (Homo sapiens, TNF-α (500 ng/ml) for 4 hours, read-out: IC50 (μM) TNF stimulation) 4 µM.
For the compound `COC1=C(OC)C(=O)C(Cc2ccc(C(=O)NC(C)C)cc2)=C(C)C1=O` [Prod. Ex. 23, N-[4-(5,6-Dimethoxy-3-methyl-1,4-benzoquinon-2-ylmethyl)benzoyl]isopropylamine], the IC50 under setting [1] worked out at 42 µM.
For the compound `COC1=C(OC)C(=O)C(Cc2ccc(CCCC(=O)N3CCOCC3)cc2)=C(C)C1=O` [Prod. Ex. 27, N-[4-[4-(5,6-Dimethoxy-3-methyl-1,4-benzoquinon-2-ylmethyl)phenyl]butanoyl]morpholine], under setting [1], the 50% inhibitory concentration (IC50) stood at 15 µM.
The same measure, in the same setting: then `COC1=C(OC)C(=O)C(Cc2ccc(CCCC(=O)N3CCSCC3)cc2)=C(C)C1=O` [Prod. Ex. 28, N-[4-[4-(5,6-Dimethoxy-3-methyl-1,4-benzoquinon-2-ylmethyl)phenyl]butanoyl]thiomorpholine], with 14 µM.
On the same count and under the same terms, with `COC1=C(OC)C(=O)C(Cc2ccc(CCCC(=O)N3CCCCC3)cc2)=C(C)C1=O` [Prod. Ex. 29, N-[4-[4-(5,6-Dimethoxy-3-methyl-1,4-benzoquinon-2-ylmethyl)phenyl]butanoyl]piperidine] the figure was 13 µM.
Still for that read-out and setting: then `COC1=C(OC)C(=O)C(Cc2ccc(CCCC(=O)NC(C)C)cc2)=C(C)C1=O` [Prod. Ex. 30, N-[4-[4-(5,6-Dimethoxy-3-methyl-1,4-benzoquinon-2-ylmethyl)phenyl]butanoyl]isopropylamine], with 14 µM.
`COC1=C(OC)C(=O)C(Cc2cccc(CCC(=O)N3CCCCC3)c2)=C(C)C1=O` [Prod. Ex. 32, N-[3-[3-(5,6-Dimethoxy-3-methyl-1,4-benzoquinon-2-ylmethyl)phenyl]propionyl]piperidine]: under setting [1], the IC50 amounted to 24 µM.
Still for that read-out and setting: with `COC1=C(OC)C(=O)C(Cc2cccc(CCC(=O)N3CCSCC3)c2)=C(C)C1=O` [Prod. Ex. 33, N-[3-[3-(5,6-Dimethoxy-3-methyl-1,4-benzoquinon-2-ylmethyl)phenyl]propionyl]thiomorpholine] the figure was 28 µM; with `COC1=C(OC)C(=O)C(Cc2cccc(CCC(=O)N3CCOCC3)c2)=C(C)C1=O` [Prod. Ex. 34, N-[3-[3-(5,6-Dimethoxy-3-methyl-1,4-benzoquinon-2-ylmethyl)phenyl]propionyl]morpholine], 29 µM.
Same read-out and setting: then `COC1=C(OC)C(=O)C(Cc2cccc(CCC(=O)NC(C)C)c2)=C(C)C1=O` [Prod. Ex. 35, N-[3-[3-(5,6-Dimethoxy-3-methyl-1,4-benzoquinon-2-ylmethyl)phenyl]propionyl]isopropylamine], with 8 µM; and `COC1=C(OC)C(=O)C(Cc2cccc(/C=C/C(=O)N3CCCCC3)c2)=C(C)C1=O` [Prod. Ex. 37, N-[3-[3-(5,6-Dimethoxy-3-methyl-1,4-benzoquinon-2-ylmethyl)phenyl]acryloyl]piperidine], with 49 µM.
On the same count and under the same terms, then `COC1=C(OC)C(=O)C(Cc2cccc(/C=C/C(=O)NC(C)C)c2)=C(C)C1=O` [Prod. Ex. 39, N-[3-[3-(5,6-Dimethoxy-3-methyl-1,4-benzoquinon-2-ylmethyl)phenyl]acryloyl]isopropylamine], with 39 µM.
Take `COC1=C(OC)C(=O)C(Cc2cccc(C(=O)NC(C)C)c2)=C(C)C1=O` [Prod. Ex. 42, N-[3-(5,6-Dimethoxy-3-methyl-1,4-benzoquinon-2-ylmethyl)benzoyl]isopropylamine]: the IC50 under setting [1] was found to be 22 µM.
Still for that read-out and setting: then `COC1=C(OC)C(=O)C(Cc2cccc(C(=O)N3CCCCC3)c2)=C(C)C1=O` [Prod. Ex. 43, N-[3-(5,6-Dimethoxy-3-methyl-1,4-benzoquinon-2-ylmethyl)benzoyl]piperidine], with 21 µM.
Still for that read-out and setting: with `COC1=C(OC)C(=O)C(Cc2cccc(C(=O)N3CCSCC3)c2)=C(C)C1=O` [Prod. Ex. 45, N-[3-(5,6-Dimethoxy-3-methyl-1,4-benzoquinon-2-ylmethyl)benzoyl]thiomorpholine] the figure was 17 µM.
The same measure, in the same setting: with `CC1=C(C)C(=O)C(Cc2ccc(CCC(=O)NC(C)C)cc2)=C(C)C1=O` [Prod. Ex. 46] the figure was 17 µM; with `CC1=C(C)C(=O)C(Cc2ccc(CCC(=O)N3CCCCC3)cc2)=C(C)C1=O` [Prod. Ex. 47, N-[3-[4-(3,5,6-Trimethyl-1,4-benzoquinon-2-ylmethyl)phenyl]propionyl]piperidine], 21 µM; with `CC1=C(C)C(=O)C(Cc2ccc(CCC(=O)N3CCOCC3)cc2)=C(C)C1=O` [Prod. Ex. 48, N-[3-[4-(3,5,6-Trimethyl-1,4-benzoquinon-2-ylmethyl)phenyl]propionyl]morpholine], 18 µM.
Take `CC1=C(C)C(=O)C(Cc2cccc(CCC(=O)NC(C)C)c2)=C(C)C1=O` [Prod. Ex. 49, N-[3-[3-(3,5,6-Trimethyl-1,4-benzoquinon-2-ylmethyl)phenyl]propionyl]isopropylamine]: the IC50 under setting [1] turned out to be 28 µM.
With `CC1=C(C)C(=O)C(Cc2cccc(CCC(=O)N3CCCCC3)c2)=C(C)C1=O` [Prod. Ex. 50, N-[3-[3-(3,5,6-Trimethyl-1,4-benzoquinon-2-ylmethyl)phenyl]propionyl]piperidine], the concentration for half-maximal inhibition (IC50) under setting [1] was found to be 16 µM.
On the same count and under the same terms, with `CC1=C(C)C(=O)C(Cc2cccc(CCC(=O)N3CCOCC3)c2)=C(C)C1=O` [Prod. Ex. 51, N-[3-[3-(3,5,6-Trimethyl-1,4-benzoquinon-2-ylmethyl)phenyl]propionyl]morpholine] the figure was 18 µM.
The same measure, in the same setting: with `COC1=C(OC)C(=O)C(Cc2ccc(CC(=O)N3CCOCC3)cc2)=C(C)C1=O` [Prod. Ex. 53, N-[4-(5,6-Dimethoxy-3-methyl-1,4-benzoquinon-2-ylmethyl)phenylacetyl]morpholine] the figure was 8 µM.
Still for that read-out and setting: with `COC1=C(OC)C(=O)C(Cc2ccc(CC(=O)N3CCCCC3)cc2)=C(C)C1=O` [Prod. Ex. 54, N-[4-(5,6-Dimethoxy-3-methyl-1,4-benzoquinon-2-ylmethyl)phenylacetyl]piperidine] the figure was 5 µM.
Turning to `COC1=C(OC)C(=O)C(Cc2ccc(CC(=O)N3CCSCC3)cc2)=C(C)C1=O` [Prod. Ex. 55, N-[4-(5,6-Dimethoxy-3-methyl-1,4-benzoquinon-2-ylmethyl)phenylacetyl]thiomorpholine], the IC50 under setting [1] was determined as 7 µM.
Take `COC1=C(OC)C(=O)C(Cc2ccc(CC(=O)NC(C)C)cc2)=C(C)C1=O` [Prod. Ex. 56, N-[4-(5,6-Dimethoxy-3-methyl-1,4-benzoquinon-2-ylmethyl)phenylacetyl]isopropylamine]: the IC50 under setting [1] was 5 µM.
The same measure, in the same setting: with `COC1=C(OC)C(=O)C(Cc2cccc(CC(=O)N3CCCCC3)c2)=C(C)C1=O` [Prod. Ex. 58, N-[3-(5,6-Dimethoxy-3-methyl-1,4-benzoquinon-2-ylmethyl)phenylacetyl]piperidine] the figure was 13 µM; with `COC1=C(OC)C(=O)C(Cc2cccc(CC(=O)N3CCSCC3)c2)=C(C)C1=O` [Prod. Ex. 59, N-[3-(5,6-Dimethoxy-3-methyl-1,4-benzoquinon-2-ylmethyl)phenylacetyl]thiomorpholine], 12 µM; with `COC1=C(OC)C(=O)C(Cc2cccc(CC(=O)N3CCOCC3)c2)=C(C)C1=O` [Prod. Ex. 60, N-[3-(5,6-Dimethoxy-3-methyl-1,4-benzoquinon-2-ylmethyl)phenylacetyl]morpholine], 18 µM.
For `COC1=C(OC)C(=O)C(Cc2cccc(CC(=O)NC(C)C)c2)=C(C)C1=O` [Prod. Ex. 61, N-[3-(5,6-Dimethoxy-3-methyl-1,4-benzoquinon-2-ylmethyl)phenylacetyl]isopropylamine], the IC50 under setting [1] stood at 24 µM.
Still for that read-out and setting: with `COC1=C(OC)C(=O)C(Cc2cccc(CCCC(=O)N3CCCCC3)c2)=C(C)C1=O` [Prod. Ex. 63, N-[4-[3-(5,6-Dimethoxy-3-methyl-1,4-benzoquinon-2-ylmethyl)phenyl]butanoyl]piperidine] the figure was 2 µM; with `COC1=C(OC)C(=O)C(Cc2cccc(CCCC(=O)N3CCSCC3)c2)=C(C)C1=O` [Prod. Ex. 64, N-[4-[3-(5,6-Dimethoxy-3-methyl-1,4-benzoquinon-2-ylmethyl)phenyl]butanoyl]thiomorpholine], 5 µM.
Same read-out and setting: then `COC1=C(OC)C(=O)C(Cc2cccc(CCCC(=O)N3CCOCC3)c2)=C(C)C1=O` [Prod. Ex. 65, N-[4-[3-(5,6-Dimethoxy-3-methyl-1,4-benzoquinon-2-ylmethyl)phenyl]butanoyl]morpholine], with 12 µM; and `COC1=C(OC)C(=O)C(Cc2cccc(CCCC(=O)NC(C)C)c2)=C(C)C1=O` [Prod. Ex. 66, N-[4-[3-(5,6-Dimethoxy-3-methyl-1,4-benzoquinon-2-ylmethyl)phenyl]butanoyl]isopropylamine], with 3 µM; and `COC1=C(OC)C(=O)C(Cc2ccccc2CCC(=O)N2CCCCC2)=C(C)C1=O` [Prod. Ex. 70, N-[3-[2-(5,6-Dimethoxy-3-methyl-1,4-benzoquinon-2-ylmethyl)phenyl]propionyl]piperidine], with 44 µM.

A word on the IC50: it is the concentration that inhibits the measured activity by half.
